Laboratory results: patent US20250250312A1, “BIFUNCTIONAL PEPTIDE WITH MU[…] VIRUS BINDING PROPERTIES” (priority 2022, published 2025)

Assays:
[1] = target: receptor binding domain (RBD) of SARS-CoV-2 (2019-nCoV) (Severe acute respiratory syndrome coronavirus 2, UniProt P0DTC2); assay: biochemical; conditions: Table 4, cysteines in reduced state, MST
[2] = target: receptor binding domain (RBD) of SARS-CoV-2 wildtype (2019-nCoV) (SARS-CoV-2), P0DTC2

| Molecule | Kd [1] [nM] | Kd [2] [nM] |
| --- | --- | --- |
| CC(C)C[C@H](NC(=O)[C@H](Cc1ccccc1)NC(=O)[C@@H](NC(=O)[C@H](CCCCN)NC(=O)[C@H](C)NC(=O)[C@H](CCC(N)=O)NC(=O)[C@H](CCC(=O)O)NC(=O)[C@@H](N)CCC(=O)O)[C@@H](C)O)C(=O)N[C@@H](CC(=O)O)C(=O)N[C@@H](CCCCN)C(=O)N[C@@H](Cc1ccccc1)C(=O)N[C@@H](CC(N)=O)C(=O)N[C@@H](Cc1c[nH]cn1)C(=O)N[C@@H](CCC(=O)O)C(=O)N[C@@H](C)C(=O)N[C@@H](CCC(=O)O)C(=O)N[C@@H](CC(=O)O)C(=O)N[C@@H](CS)C(=O)N[C@@H](Cc1ccccc1)C(=O)N[C@@H](Cc1ccc(O)cc1)C(=O)N[C@@H](CCC(N)=O)C(=O)N[C@@H](CS)C(=O)N[C@@H](CO)C(=O)O [p4C18, 22] | 218 |  |
| EEQAKTFKDKFDHEAEDLFYQSSGLGKGDFR (modifications not checked) [p6(K)8(D)12] |  | 5000 |
